From patent US20120202794A1 (priority 2011, published 2012)

How the values were obtained:
[1] = system: HCV Replicon 1b; assay: HCV inhibition assay, HCV replicon 1b (Clone A or ET-lunet cells; RT-PCR or luciferase reporter); format: cell-based; settings: Hepatitis C virus, 96 h, HCV replicon 1b; 4 days incubation; read-out: Replicon 1b potency EC90
Method in brief: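 Inhibition read either as luciferase signal (ET replicon) or as HCV 5′-NTR RNA by RT-PCR relative to rRNA, % = (1−2^−ΔΔCt)×100, against DMSO controls, giving EC50 and EC90. Cells: Clone A or ET-lunet, seeded 1500 or 3000/well, exposed 4 days at 37 °C, 5% CO2, 0.5% DMSO.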

[2] = Cell cytotoxicity assay (MTS), CC90 as reported in Table 1, cell line not stated; format: cell-based; settings: human; MTS assay; 8 days incubation; cell line not given
Method in brief: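 MTS read-out (490 nm, 2 h dye step) after 8-day exposure at 37° C. Huh7, HepG2, BxPC3 were seeded at 2×10^3 and CEM at 5×10^3 cells/well, with compound serially diluted from 100 μM. CC90 comes from comparison with untreated control wells.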

Structure (SMILES) | EC90 [1] | CC90 at 8 days [2]
COC(=O)c1ccc(/C=C/C(=O)N2C[C@H](CC(C)C)NC(=O)[C@@H]2CC(C)C)cc1 [Compound 270, Methyl 4-((E)-3-((2S,5S)-2,5-diisobutyl-3-oxopiperazin-1-yl)-3-oxoprop-1-en-1-yl)-benzoate] | > 10 µM | > 10 µM
CC(C)C[C@H]1CN(C(=O)/C=C/c2c(F)cccc2F)[C@@H](CC(C)C)C(=O)N1 [Compound 271, (3S,6S)-4-[3-(2,6-Difluoro-phenyl)-acryloyl]-3,6-diisobutyl-piperazin-2-one] | > 10 µM | > 10 µM
CC(C)C[C@H]1CN(C(=O)c2cc(-c3ccc(Cl)cc3)cs2)[C@@H](CC(C)C)C(=O)N1 [Compound 272, (3S,6S)-4-(4-(4-chlorophenyl)thiophene-2-carbonyl)-3,6-diisobutylpiperazin-2-one] | 3.56 µM | > 10 µM
CC(C)C[C@H]1CN(C(=O)c2cc(-c3ccccc3Cl)on2)[C@@H](CC(C)C)C(=O)N1 [Compound 274, (3S,6S)-4-(5-(2-chlorophenyl)isoxazole-3-carbonyl)-3,6-diisobutylpiperazin-2-one] | 5.95 µM | > 10 µM
CC(C)C[C@H]1CN(C(=O)c2cc(-c3ccc(Cl)cc3Cl)on2)[C@@H](CC(C)C)C(=O)N1 [Compound 275, (3S,6S)-4-(5-(2,4-dichlorophenyl)isoxazole-3-carbonyl)-3,6-diisobutylpiperazin-2-one] | 6.31 µM | > 10 µM
CC(C)C[C@H]1CN(C(=O)c2cc(-c3ccc(Cl)c(Cl)c3)on2)[C@@H](CC(C)C)C(=O)N1 [Compound 276, (3S,6S)-4-(5-(3,4-Dichlorophenyl)isoxazole-3-carbonyl)-3,6-diisobutylpiperazin-2-one] | 2.98 µM | > 10 µM
CSc1ccc(-c2cc(C(=O)N3C[C@H](CC(C)C)NC(=O)[C@@H]3CC(C)C)no2)cc1 [Compound 277, (3S,6S)-3,6-diisobutyl-4-(5-(4-(methylthio)phenyl)isoxazole-3-carbonyl)piperazin-2-one] | 5.84 µM | > 10 µM
CC(C)C[C@H]1CN(C(=O)Cc2cc(-c3ccc(F)cc3)on2)[C@@H](CC(C)C)C(=O)N1 [Compound 278, (3S,6S)-4-(2-(5-(4-fluorophenyl)isoxazol-3-yl)acetyl)-3,6-diisobutylpiperazin-2-one] | 7.89 µM | > 10 µM
CC(C)C[C@H]1C(=O)N[C@@H](CC(C)(C)C)CN1C(=O)[C@@H]1C[C@H]1c1ccccc1 [Compound 280, (3S,6S)-3-isobutyl-6-neopentyl-4-((1R,2R)-2phenylcyclopropanecarbonyl)piperazin-2-one] | 8.65 µM | > 10 µM
CC(C)(C)C[C@H]1CN(C(=O)[C@@H]2C[C@H]2c2ccccc2)[C@@H](CC(C)(C)C)C(=O)N1 [Compound 281, (3S,6S)-3,6-dineopentyl-4-((1R,2R)-2-phenylcyclopropanecarbonyl)-piperazin-2-one] | > 10 µM | > 10 µM
CCc1ccc(-c2cc(C(=O)N3C[C@H](CC(C)C)NC(=O)[C@@H]3CC(C)C)no2)cc1 [Compound 283, (3S,6S)-4-(5-(4-ethylphenyl)isoxazole-3-carbonyl)-3,6-diisobutylpiperazin-2-one] | 8.75 µM | > 10 µM
CC(C)C[C@H]1CN(C(=O)c2cc(-c3ccc(C4CC4)cc3)on2)[C@@H](CC(C)C)C(=O)N1 [Compound 284, (3S,6S)-4-(5-(4-cyclopropylphenyl)isoxazole-3-carbonyl)-3,6-diisobutylpiperazin-2-one] | > 10 µM | > 10 µM
COc1ccc2c(c1)CCc1cc(C(=O)N3C[C@H](CC(C)C)NC(=O)[C@@H]3CC(C)C)sc1-2 [Compound 286, (3S,6S)-3,6-diisobutyl-4-(7-methoxy-4,5-dihydronaphtho[1,2-b]thiophene-2-carbonyl)piperazin-2-one] | 3.91 µM | > 10 µM
CC(C)C[C@H]1CN(C(=O)c2cc(-c3cc(F)cc(F)c3)on2)[C@@H](CC(C)C)C(=O)N1 [Compound 287, (3S,6S)-4-(5-(3,5-difluorophenyl)isoxazole-3-carbonyl)-3,6-diisobutylpiperazin-2-one] | 3.57 µM | > 10 µM
CC(C)C[C@H]1C(=O)N[C@@H](CC2CC2)CN1C(=O)c1cc(-c2ccc(F)cc2F)on1 [Compound 288, (3S,6S)-6-(cyclopropylmethyl)-4-(5-(2,4-difluorophenyl)isoxazole-3-carbonyl)-3-isobutylpiperazin-2-one] | 1.6 µM | > 10 µM
COc1ccc2c(c1)CCc1c(C(=O)N3C[C@H](CC(C)C)NC(=O)[C@@H]3CC(C)C)noc1-2 [Compound 289, (3S,6S)-3,6-diisobutyl-4-(7-methoxy-4,5-dihydronaphtho[2,1-d]isoxazole-3-carbonyl)piperazin-2-one] | 5.01 µM | > 10 µM

Structure (SMILES) | EC90 [1] | CC90 at 8 days [2]
CCC[C@H]1CN(C(=O)c2noc(-c3ccc(F)cc3)n2)[C@@H](CC(C)C)C(=O)N1 [Compound 290, (3S,6S)-4-(5-(4-fluorophenyl)-1,2,4-oxadiazole-3-carbonyl)-3-isobutyl-6-propylpiperazin-2-one] | 0.14 µM | > 10 µM
CC(C)C[C@H]1C(=O)N[C@@H](C2CCCCC2)CN1C(=O)c1noc(-c2ccc(F)cc2)n1 [Compound 291, (3S,6S)-6-cyclohexyl-4-(5-(4-fluorophenyl)-1,2,4-oxadiazole-3-carbonyl)-3-isobutylpiperazin-2-one] | 0.33 µM | > 10 µM
CC(C)C[C@H]1CN(C(=O)c2noc(-c3ccc(F)cc3)n2)[C@@H](CC(C)C)C(=O)N1 [Compound 293, (3S,6S)-4-(5-(4-Fluorophenyl)-1,2,4-oxadiazole-3-carbonyl)-3,6-diisobutylpiperazin-2-one] | 0.27 µM | > 10 µM
CC(C)C[C@H]1C(=O)N[C@@H](C2CCCC2)CN1C(=O)c1noc(-c2ccc(F)cc2)n1 [Compound 294, (3S,6S)-6-Cyclopentyl-4-(5-(4-fluorophenyl)-1,2,4-oxadiazole-3-carbonyl)-3-isobutylpiperazin-2-one] | 0.35 µM | > 10 µM
CC(C)C[C@H]1C(=O)N[C@@H](C(C)C)CN1C(=O)c1noc(-c2ccc(F)cc2)n1 [Compound 295, (3S,6S)-4-(5-(4-Fluorophenyl)-1,2,4-oxadiazole-3-carbonyl)-3-isobutyl-6-isopropylpiperazin-2-one] | 0.32 µM | > 10 µM
CSC[C@H]1CN(C(=O)c2noc(-c3ccc(F)cc3)n2)[C@@H](CC(C)C)C(=O)N1 [Compound 296, (3S,6R)-4-(5-(4-Fluorophenyl)-1,2,4-oxadiazole-3-carbonyl)-3-isobutyl-6-((methylthio)methyl)piperazin-2-one] | 1.54 µM | > 10 µM
CC(C)C[C@H]1C(=O)N[C@@H](CC2CC2)CN1C(=O)[C@@H]1C[C@H]1c1ccc(F)cc1 [Compound 297, (3S,6S)-4-[(1R,2R)-2-(4-Fluoro-phenyl)-cyclopropanecarbonyl]-6-cyclopropyl-methyl-3-isobutyl-piperazin-2-one] | 0.41 µM | > 10 µM
CSC[C@H]1CN(C(=O)[C@@H]2C[C@H]2c2ccc(F)cc2)[C@@H](CC(C)C)C(=O)N1 [Compound 299, (3S,6R)-4-((1R,2R)-2-(4-fluorophenyl)cyclopropanecarbonyl)-3-isobutyl-6-((methylthio)methyl)piperazin-2-one] | 0.63 µM | > 10 µM
CSC[C@H]1CN(C(=O)[C@@H]2C[C@H]2c2ccc(Cl)cc2)[C@@H](CC(C)C)C(=O)N1 [Compound 300, (3S,6R)-4-((1R,2R)-2-(4-Chlorophenyl)cyclopropanecarbonyl)-3-isobutyl-6-((methylthio)methyl)piperazin-2-one] | 0.78 µM | > 10 µM
CC(C)C[C@H]1CN(C(=O)c2noc3c2CCc2cc(F)ccc2-3)[C@@H](CC(C)C)C(=O)N1 [Compound 302, (3S,6S)-3,6-Diisobutyl-4-(7-fluoro-4,5-dihydronaphtho[2,1-d]isoxazole-3-carbonyl)piperazin-2-one] | 1.41 µM | > 10 µM
CCC[C@H]1CN(C(=O)c2noc3c2CCc2cc(F)ccc2-3)[C@@H](CC(C)C)C(=O)N1 [Compound 304, (3S,6S)-4-(7-fluoro-4,5-dihydronaphtho[2,1-d]isoxazole-3-carbonyl)-3-isobutyl-6-propylpiperazin-2-one] | 0.64 µM | > 10 µM
CC(C)C[C@H]1C(=O)N[C@@H](C2CCCC2)CN1C(=O)c1noc2c1CCc1cc(F)ccc1-2 [Compound 305, (3S,6S)-6-cyclopentyl-4-(7-fluoro-4,5-dihydronaphtho[2,1-d]isoxazole-3-carbonyl)-3-isobutylpiperazin-2-one] | 1.61 µM | > 10 µM
CC(C)C[C@H]1C(=O)N[C@@H](c2ccccc2)CN1C(=O)c1noc2c1CCc1cc(F)ccc1-2 [Compound 306, (3S,6S)-4-(7-fluoro-4,5-dihydronaphtho[2,1-d]isoxazole-3-carbonyl)-3-isobutyl-6-phenylpiperazin-2-one] | 0.89 µM | > 10 µM
CC(C)C[C@H]1CN(C(=O)c2cc3c(s2)-c2ccccc2OC3)[C@@H](CC(C)C)C(=O)N1 [Compound 307, (3S,6S)-3,6-diisobutyl-4-(4H-thieno[3,2-c]chromene-2-carbonyl)piperazin-2-one] | 4.71 µM | > 10 µM
CC(C)C[C@H]1CN(C(=O)c2cc3c(s2)-c2cc(F)ccc2OC3)[C@@H](CC(C)C)C(=O)N1 [Compound 308, (3S,6S)-4-(8-fluoro-4H-thieno[3,2-c]chromene-2-carbonyl)-3,6-diisobutylpiperazin-2-one] | 6.48 µM | > 10 µM
